Measured values: paper PMC7997396 (Cell host & microbe, 2020)

Biological target: mouse Trpa1 (Mus musculus, UniProt Q8BLA8)
Assay: Ca2+ influx assay in HEK-293T cells transfected with mouse TRPA1
Assay type: cell-based

Sequence of mouse Trpa1 (Q8BLA8 whole entry): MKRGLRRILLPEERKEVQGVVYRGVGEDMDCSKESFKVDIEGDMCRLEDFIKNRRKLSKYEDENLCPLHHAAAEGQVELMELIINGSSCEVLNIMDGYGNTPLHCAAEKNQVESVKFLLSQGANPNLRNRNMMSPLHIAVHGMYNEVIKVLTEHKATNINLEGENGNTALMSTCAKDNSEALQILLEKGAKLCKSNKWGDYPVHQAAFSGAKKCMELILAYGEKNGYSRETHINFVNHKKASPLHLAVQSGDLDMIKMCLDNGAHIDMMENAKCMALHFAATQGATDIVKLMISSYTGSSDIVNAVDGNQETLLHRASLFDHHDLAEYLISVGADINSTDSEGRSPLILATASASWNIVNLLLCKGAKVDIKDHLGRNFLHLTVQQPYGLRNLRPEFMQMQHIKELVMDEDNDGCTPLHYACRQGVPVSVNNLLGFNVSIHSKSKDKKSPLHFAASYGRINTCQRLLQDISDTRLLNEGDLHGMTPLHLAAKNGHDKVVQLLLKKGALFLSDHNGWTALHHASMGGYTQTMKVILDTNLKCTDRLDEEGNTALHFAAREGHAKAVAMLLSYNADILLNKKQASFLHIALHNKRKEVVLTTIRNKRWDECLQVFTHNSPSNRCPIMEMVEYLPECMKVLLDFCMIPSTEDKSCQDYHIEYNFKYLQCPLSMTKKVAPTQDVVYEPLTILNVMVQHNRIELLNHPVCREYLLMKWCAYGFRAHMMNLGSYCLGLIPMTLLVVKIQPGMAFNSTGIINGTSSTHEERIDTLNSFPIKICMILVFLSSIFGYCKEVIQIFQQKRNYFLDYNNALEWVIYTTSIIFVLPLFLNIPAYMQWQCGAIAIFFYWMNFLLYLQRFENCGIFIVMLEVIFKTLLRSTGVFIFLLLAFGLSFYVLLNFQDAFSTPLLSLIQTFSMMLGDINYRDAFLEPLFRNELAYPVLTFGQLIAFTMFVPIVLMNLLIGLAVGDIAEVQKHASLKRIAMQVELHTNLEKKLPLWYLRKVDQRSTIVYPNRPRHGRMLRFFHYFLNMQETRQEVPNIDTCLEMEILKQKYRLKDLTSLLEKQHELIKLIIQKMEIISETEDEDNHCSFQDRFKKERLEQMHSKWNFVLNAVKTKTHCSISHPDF

Row | SMILES | Ca2+ influx assay in HEK-293T cells transfected with mouse TRPA1
1 | c1ccc2[nH]ccc2c1 [Indole] | Both indole and IAld also activated mouse Trpa1, but in a less potent manner
2 | O=Cc1c[nH]c2ccccc12 [IAld, Indole-3-carboxaldehyde] | Both indole and IAld also activated mouse Trpa1, but in a less potent manner
